Experiments:
[1] = tested on: blood platelets; assay: Cold storage of PRP blood platelets, aggregation of thrombocytes after storage; format: cell-based; parameters: key: − means that most of the thrombocytes were aggregated; a + indicates that a few cells were still viable but some cells aggregated; a ++ indicates that almost all cells were viable; details: 30 mM; PRP platelets stored at 4° C.; 264 hours
Procedure: PRP platelets were harvested and 2.1 ml was suspended in Poly Propylene tubes of 5 ml, closed with a stop.
Several compounds according to the invention were added to the blood platelets directly after preparing the PRP plasma and incubated during 10 minutes at 37° C. or 30 minutes at room temperature. The blood platelets with the compound were then stored at 4° C.
A control was stored under shaking conditions at room temperature. Another control was stored at 4° C. without the addition of a compound.
A sample was taken out of each tube after 264 hours after addition of the compound and tested as follows: • The color and coagulation properties were visually analysed. • The thrombocyte cells that survived were counted and it was evaluated whether the thrombocytes were aggregated. • It was evaluated if the thrombocytes still were able to function after stimulation by the addition of ADP or under influence of collagen in a 96 well plate. • The adhesion was evaluated, meaning the ability of the platelets to bind collagen in a 6 well plate preincubated with collagen. • Via an ELISA assay, it was evaluated whether thromboxane was secreted from the platelets. Thromboxane facilitates aggregation and is produced by activated blood platelets.
Table 3 provides an overview of the results of the addition of the compounds to the blood platelets and evaluates the aggregation of the thrombocytes after addition of the compound according to the invention and cooling until 4° C.

[2] = tested on: Human Embryo Kidney (HEK) 293 cells; assay: Hypothermia/rewarming injury of HEK cells, trypan blue viability count; format: cell-based; details: for viability at 0.01 µM / viability at 0.1 µM / viability at 1 µM / viability at 10 µM / viability at 100 µM / viability at 1000 µM: Homo sapiens, HEK293, 24 h, read-out: % cells that survived; for viability at 0.01 µM / viability at 0.1 µM / viability at 1 µM / viability at 10 µM / viability at 100 µM / viability at 1000 µM / % cells that survived: 24 h at 4° C., 24 h rewarming; for % cells that survived, Mean: mean over the tested concentrations
Procedure: Human Embryo Kidney (HEK) 293 cells were cultured in DMEM cell culture medium (Life Technologies, 41965-052) supplemented with fetal calf serum, penicillin and streptomycin. Cells were seeded at a density of 0.8-1.2E6 mL-1 in 25 cm2 polystyrene flasks, placed in a 37° C.
The compounds were dissolved in dimethyl sulfoxide (DMSO) to several concentrations. Before commencing experiments, this stock solution was dissolved in pre-warmed DMEM and further diluted to obtain a concentration range from 10 nM-1 mM. Cell culture medium was then replaced by these dilutions and cells were incubated in the presence of the compound for 1 hour. After incubation, lids were closed tightly and flasks were placed in a 4° C. room and cooled for 24 hours. After this cooling period, cells were placed back in the 37° C. incubator with lids closed and were allowed to rewarm for another 24 hours.
After this rewarming period, microscopic images were taken to assess cell morphology (Nikon D5100, Nikon Diaphot-TMD). Cell culture medium was collected and centrifuged (4 minutes, 2000 rpm). The supernatant was collected and pH was immediately measured to prevent equilibration of the pH by the carbonate buffer in the medium, while the pelleted cells were resuspended in 5 mL of PBS. Cells remaining in the flask were washed twice with phosphate buffered saline (PBS) while the washing product was discarded. Subsequently, the cells were trypsinized by addition of 0.5 mL of trypsine and pooled with the resuspended pellet. This cell suspension was then stained at a final concentration of 0.2% trypan blue (Sigma, T8154), followed by manual assessment of viability and cell number on a Bürker-Türk hemocytometer. To conclude the assay, cell culture medium glucose levels were measured (Roche Accutrend Plus) as an indication of metabolic activity. All of these steps were performed with care to prevent mechanical stress to influence or alter the viability of the cells after cooling.
The amount represents the % cells that survived. […] In the control, the same procedure was applied to two badges of HEK cells.

For Cc1c(C)c2c(c(C)c1O)CC[C@@](C)(C(=O)N1CCN(CC(=O)O)CC1)O2 [SUL - 141, (S)-2-(4-(6-hydroxy-2,5,7,8-tetramethylchroman-2-carbonyl)piperazin-1-yl)acetic acid], the “Aggregation of blood platelets after storage” value (shortened to “Aggregation of blood platelets”) [1] was “+”, the viability at 0.01 µM ([2]; 10 nM) was 58.5% and the viability at 0.1 µM ([2]; 100 nM) was 96.2%. It also gave a viability at 1 µM ([2]; 1 μM) of 0.75%, a viability at 10 µM ([2]; 10 μM) of 99.4% and a viability at 100 µM ([2]; 100 μM) of 96.8%. The viability at 1000 µM ([2]; 1 mM) was 99.1% and the “% cells that survived, Mean” value [2] was 75%.

With Cc1c(C)c2c(c(C)c1O)CCC(C)(C(=O)N1CCN(CCO)CC1)O2 (centres unmarked) [SUL - 132, (6-hydroxy-2,5,7,8-tetramethylchroman-2-yl)(4-(2-hydroxyethyl)piperazin-1-yl)methanone] the “Aggregation of blood platelets” value [1] was “+”, the “% cells that survived” value ([2]; 10 nM) was 93.96% and the “% cells that survived” value ([2]; 100 nM) was 91.41%. The “% cells that survived” value ([2]; 1 μM) was 88.30%, the “% cells that survived” value ([2]; 10 μM) was 91.11% and the “% cells that survived” value ([2]; 100 μM) was 89.73%. For the same compound, the “% cells that survived” value ([2]; 1 mM) was 80.51% and the “% cells that survived, Mean” value [2] was 89%.

For CNCCNC(=O)C1(C)CCc2c(C)c(O)c(C)c(C)c2O1 (centres unmarked) [SUL - 100, 6-hydroxy-2,5,7,8-tetramethyl-N-(2-(methylamino)ethyl)chroman-2-carboxamide], the “Aggregation of blood platelets” value [1] was “+”, the viability at 0.01 µM ([2]; 10 nM) was 77.8% and the viability at 0.1 µM ([2]; 100 nM) was 76.9%. The viability at 1 µM ([2]; 1 μM) was 63.2%, the viability at 10 µM ([2]; 10 μM) was 68.8% and the viability at 100 µM ([2]; 100 μM) was 55.6%. For the same compound, the viability at 1000 µM ([2]; 1 mM) was 0% and the “% cells that survived, Mean” value [2] was 57%.

With Cc1c(C)c2c(c(C)c1O)CC[C@](C)(C(=O)NO)O2 [SUL - 125, (R)-N,6-dihydroxy-2,5,7,8-tetramethylchroman-2-carboxamide] the “Aggregation of blood platelets” value [1] was “+”, the viability at 0.01 µM ([2]; 10 nM) was 8.09% and the viability at 0.1 µM ([2]; 100 nM) was 0%. The viability at 1 µM ([2]; 1 μM) was 97.3%, the viability at 10 µM ([2]; 10 μM) was 96.7% and the viability at 100 µM ([2]; 100 μM) was 88.4%. For the same compound, the viability at 1000 µM ([2]; 1 mM) was 22.5% and the “% cells that survived, Mean” value [2] was 52%.

Cc1c(C)c2c(c(C)c1O)CCC(C)(C(=O)N1CCC[C@H]1C(=O)O)O2 (mixture of isomers) [SUL - 143, (2S)-1-(6-hydroxy-2,5,7,8-tetramethylchroman-2-carbonyl)pyrrolidine-2-carboxylic acid] was tested, and the “Aggregation of blood platelets” value [1] was “+”, the viability at 0.01 µM ([2]; 10 nM) was 30.6% and the viability at 0.1 µM ([2]; 100 nM) was 35%. It also gave a viability at 1 µM ([2]; 1 μM) of 14.9%, a viability at 10 µM ([2]; 10 μM) of 49.5% and a viability at 100 µM ([2]; 100 μM) of 97.8%. The viability at 1000 µM ([2]; 1 mM) was 98.4% and the “% cells that survived, Mean” value [2] was 54%.

Cc1c(C)c2c(c(C)c1O)CCC(C)(C(=O)N1CCC[C@H]1C(=O)O)O2 (single isomer, unassigned) [SUL - 144] was tested, and the “Aggregation of blood platelets” value [1] was “+”, the “% cells that survived” value ([2]; 10 nM) was 4.08% and the “% cells that survived” value ([2]; 10 μM) was 25.93%. The viability at 0.1 µM ([2]; 100 nM) was 18.3%, the viability at 1 µM ([2]; 1 μM) was 21.6% and the viability at 100 µM ([2]; 100 μM) was 91%. The viability at 1000 µM ([2]; 1 mM) was 92.6% and the “% cells that survived, Mean” value [2] was 42%.

For Cc1c(C)c2c(c(C)c1O)CCC(C)(C(=O)N[C@H](C)CO)O2 (stereo partly drawn) [SUL - 120, 6-hydroxy-N-((R)-1-hydroxypropan-2-yl)-2,5,7,8-tetramethylchroman-2-carboxamide], the “Aggregation of blood platelets” value [1] was “+”, the viability at 0.01 µM ([2]; 10 nM) was 17.6% and the viability at 0.1 µM ([2]; 100 nM) was 65.3%. The viability at 1 µM ([2]; 1 μM) was 95.5%, the viability at 10 µM ([2]; 10 μM) was 91.6% and the viability at 100 µM ([2]; 100 μM) was 88.7%. For the same compound, the viability at 1000 µM ([2]; 1 mM) was 81.5% and the “% cells that survived, Mean” value [2] was 73%.

In the case of Cc1c(C)c2c(c(C)c1O)CCC(C)(C(=O)N1CCN(CCO)CC1)O2 (centres unmarked) [SUL - 138, (6-hydroxy-2,5,7,8-tetramethylchroman-2-yl)(4-(2-hydroxyethyl)piperazin-1-yl)methanone], the “Aggregation of blood platelets” value [1] is reported as “+”, the “% cells that survived” value ([2]; 10 nM) is reported as 92.84% and the “% cells that survived” value ([2]; 100 nM) is reported as 91.74%. For the same compound, the “% cells that survived” value ([2]; 1 μM) was 77.01%, the “% cells that survived” value ([2]; 10 μM) was 91.71% and the “% cells that survived” value ([2]; 100 μM) was 93.30%. For the same compound, the “% cells that survived” value ([2]; 1 mM) was 86.94% and the “% cells that survived, Mean” value [2] was 89%.

Cc1c(C)c2c(c(C)c1O)CCC(C)(C(=O)N1CCOCC1)O2 (centres unmarked) [SUL - 95, (6-hydroxy-2,5,7,8-tetramethylchroman-2-yl)(morpholino)methanone] gave a viability at 0.1 µM ([2]; 100 nM) of 2.76%, a viability at 1 µM ([2]; 1 μM) of 86.8% and a viability at 10 µM ([2]; 10 μM) of 90.4%. For the same compound, the viability at 100 µM ([2]; 100 μM) was 92.1%, the viability at 1000 µM ([2]; 1 mM) was 85.9% and the “% cells that survived, Mean” value [2] was 72%.

Cc1c2c(c(C(C)C)c(O)c1C(C)C)CCC(C)(C(=O)NO)O2 (centres unmarked) [SUL - 131, N,6-dihydroxy-5,7-diisopropyl-2,8-dimethylchroman-2-carboxamide] showed a viability at 0.01 µM ([2]; 10 nM) of 2.99%, a viability at 0.1 µM ([2]; 100 nM) of 1.59% and a viability at 1 µM ([2]; 1 μM) of 22.5%. For the same compound, the viability at 10 µM ([2]; 10 μM) was 91.1%, the viability at 100 µM ([2]; 100 μM) was 75.4% and the viability at 1000 µM ([2]; 1 mM) was 0%. For the same compound, the “% cells that survived, Mean” value [2] was 32%.

In the case of Cc1c(C)c2c(c(C)c1O)CCC(C)(C(=O)Nc1ccc(F)cc1)O2 (centres unmarked) [SUL - 106, N-(4-fluorophenyl)-6-hydroxy-2,5,7,8-tetramethylchroman-2-carboxamide], the viability at 0.01 µM ([2]; 10 nM) is reported as 77.8%, the viability at 0.1 µM ([2]; 100 nM) is reported as 76.9% and the viability at 1 µM ([2]; 1 μM) is reported as 63.2%. It also gave a viability at 10 µM ([2]; 10 μM) of 68.8%, a viability at 100 µM ([2]; 100 μM) of 55.6% and a viability at 1000 µM ([2]; 1 mM) of 0%. For the same compound, the “% cells that survived, Mean” value [2] was 57%.

With Cc1c(C)c2c(c(C)c1O)CCC(C)(C)O2 [SUL - 83, 2,2,5,7,8-pentamethylchroman-6-ol] the viability at 0.1 µM ([2]; 100 nM) was 0%, the viability at 1 µM ([2]; 1 μM) was 79.4% and the viability at 10 µM ([2]; 10 μM) was 70.1%. The viability at 100 µM ([2]; 100 μM) was 55.7%, the viability at 1000 µM ([2]; 1 mM) was 1.11% and the “% cells that survived, Mean” value [2] was 41%.

For CCCCNC(=O)C1(C)CCc2c(C)c(O)c(C)c(C)c2O1 (centres unmarked) [SUL - 91, N-butyl-6-hydroxy-2,5,7,8-tetramethylchroman-2-carboxamide], the viability at 0.1 µM ([2]; 100 nM) was 2.28%, the viability at 1 µM ([2]; 1 μM) was 82.4% and the viability at 10 µM ([2]; 10 μM) was 89.5%. For the same compound, the viability at 100 µM ([2]; 100 μM) was 87.5%, the viability at 1000 µM ([2]; 1 mM) was 0% and the “% cells that survived, Mean” value [2] was 52%.

For CC(C)=CCC/C(C)=C/CNC(=O)C1(C)CCc2c(C)c(O)c(C)c(C)c2O1 (centres unmarked) [SUL - 93, (E)-N-(3,7-dimethylocta-2,6-dien-1-yl)-6-hydroxy-2,5,7,8-tetramethylchroman-2-carboxamide], the viability at 0.1 µM ([2]; 100 nM) was 97%, the viability at 1 µM ([2]; 1 μM) was 96.1% and the viability at 10 µM ([2]; 10 μM) was 84%. The viability at 100 µM ([2]; 100 μM) was 21.7%, the viability at 1000 µM ([2]; 1 mM) was 8% and the “% cells that survived, Mean” value [2] was 61%.

With Cc1c(C)c2c(c(C)c1O)CCC(C)(CN[C@H](CO)c1ccccc1)O2 (stereo partly drawn) [SUL - 129, 2-((((S)-2-hydroxy-1-phenylethyl)amino)methyl)-2,5,7,8-tetramethylchroman-6-ol] the viability at 0.01 µM ([2]; 10 nM) was 0%, the viability at 0.1 µM ([2]; 100 nM) was 5.65% and the viability at 1 µM ([2]; 1 μM) was 88.8%. The viability at 10 µM ([2]; 10 μM) was 89.9%, the viability at 100 µM ([2]; 100 μM) was 91.5% and the viability at 1000 µM ([2]; 1 mM) was 0%. For the same compound, the “% cells that survived, Mean” value [2] was 46%.

With Cc1c(C)c2c(c(C)c1O)CCC(C)(C(=O)NCCC#N)O2 (centres unmarked) [SUL - 123, N-(2-cyanoethyl)-6-hydroxy-2,5,7,8-tetramethylchroman-2-carboxamide] the viability at 0.01 µM ([2]; 10 nM) was 68.4%, the viability at 0.1 µM ([2]; 100 nM) was 90.5% and the viability at 1 µM ([2]; 1 μM) was 83.2%. It also gave a viability at 10 µM ([2]; 10 μM) of 88.4%, a viability at 100 µM ([2]; 100 μM) of 88.2% and a viability at 1000 µM ([2]; 1 mM) of 0.75%. The “% cells that survived, Mean” value [2] was 70%.

Work on Cc1c(C)c2c(c(C)c1O)CC[C@@](C)(C(=O)O)O2 [SUL - 84, (S)-6-hydroxy-2,5,7,8-tetramethylchroman-2-carboxylic acid] yielded a viability at 0.1 µM ([2]; 100 nM) of 6.22%, a viability at 1 µM ([2]; 1 μM) of 19.8% and a viability at 10 µM ([2]; 10 μM) of 70.1%. For the same compound, the viability at 100 µM ([2]; 100 μM) was 95.7%, the viability at 1000 µM ([2]; 1 mM) was 94.5% and the “% cells that survived, Mean” value [2] was 57%.

Source: patent publication US11006626B2, “Compounds for protection of cells” (Sulfateq B.V., priority 2012, dated 2021)
